Test results from patent US5648366A, “Substituted pyrrolidin-3-yl-alkyl-piperidines” (Merrell Pharmaceuticals Inc., priority 1995, dated 1997).
Counter-ions that a name gives are not always drawn.

Columns and labels:
NK1 receptor = biological target: T1, NK1 receptor (Homo sapiens, UniProt P25103); experiment: Antagonism of NK1 receptor mediated (SP-induced) phosphatidylinositol turnover in UC11 cells; type: cell-based; conditions: UC11 cells, SP; for NK-1 RECEPTOR -SLOPE: Schild analysis; for NK-1 RECEPTOR pA2: Schild analysis of 2-3 experiments, 95% confidence limits on next line
T1 construct: endogenous in cells; host or cells: UC11 cells
Procedure: (§1) ANTAGONISM OF NK1 AND NK2 RECEPTOR MEDIATED PHOSPHATID[…]
(§2) Tachykinin-mediated inositol phosphate accumulation was measured in UC11 or SKLKB82#3 cells in the presence and absence of NK1 or NK2 receptor antagonists, respectively. Tissues were incubated in Krebs-Henseleit buffer at 37° C. with 95% O2 -5% CO2 gassing. Tissues were then incubated with fresh buffer containing 100 μCi of myo-[2-^3 H(N)] inositol at 37° C. for 60 min with gentle gassing. After washing twice in 5 ml room temperature buffer containing 10 mM LiCl, tissues were incubated for 30 min at room temperature with a buffer change at 15 min. Buffer was removed and Krebs-Henseleit buffer (containing 40 μg/ml bacitracin, 4 μg/ml each of leupeptin and chymostatin, 0.1% bovine serum albumin and 10 mM each of thiorphan and LiCl) added. After 15 min, SP was added to UC11 cells or NKA to SKLKB82#3 cells at various concentrations to start the reaction. After incubation for 60 min at room temperature the reaction was terminated by addition of 930 μl chloroform: methanol (1:2 by volume) to each tube, followed by 310 μl chloroform and 310 μl doubly distilled water. Samples were vortexed, centrifuged, and 0.9 ml of the aqueous (top) phase removed and added to 2 ml ddH2 O. The mixture was vortexed and loaded onto a 50% Bio-Rad AG 1-X8 (formate form, 100-200 mesh) exchange column (Bio-Rad Laboratories, Hercules, Calif.). The columns were washed, in order, with: 1) 10 ml doubly distilled water, 2) 5 ml of 5 mM disodium tetraborate/60 mM sodium formate, and 3) 5 ml of 1M ammonium formate/0.1M formic acid. The third elution was collected and 1 ml counted in 7 ml scintillation fluid. A 50 μl aliquot of the organic (bottom) phase was removed, dried in a scintillation vial and counted in 7 ml scintillation fluid.
(§3) The ratio of DPM in the aqueous phase aliquot (total inositol phosphates) to the DPM in the 50 μl organic phase aliquot (total [^3 H]inositol incorporated) was calculated for each sample. Data are expressed as a percent of agonist-induced accumulation of [^3 H]-inositol phosphates over basal levels. The ratios in the presence of test compound and/or standards were compared to the ratios for control samples (i.e. no stimulating agonist). Dose-response graphs were constructed and the abilities of the test compounds to inhibit tachykinin-induced phosphatidyinositol turnover determined with the aid of a computer program. […] Data is expressed as percent stimulation of total inositol phosphate accumulation over basal levels and normalized to the maximum response produced by SP. […] Schild analysis is performed using dose response curves (such as those presented in FIGS. 1a and 1b) to obtain a value indicative of the strength of a competitive antagonist and is expressed as the pA2, which is the negative logarithm of the molar concentration of antagonist which reduces the effect of a dose of agonist to one-half of that expected at the dose of agonist.

NK2 receptor [1] = biological target: T2, NK2 receptor (Bos taurus, UniProt P05363); experiment: Antagonism of NK2 receptor mediated (NKA-induced) phosphatidylinositol turnover in SKLKB82#3 cells; type: cell-based; conditions: SKLKB82#3 cells, NKA; for NK-2 RECEPTOR -SLOPE: Schild analysis; for NK-2 RECEPTOR pA2: Schild analysis of 2-3 experiments, 95% confidence limits on next line
T2 construct: expressed in transfected cells; host or cells: SKLKB82#3 cells (murine B82 fibroblasts by own knowledge)
T2 sequence (P05363 1-384): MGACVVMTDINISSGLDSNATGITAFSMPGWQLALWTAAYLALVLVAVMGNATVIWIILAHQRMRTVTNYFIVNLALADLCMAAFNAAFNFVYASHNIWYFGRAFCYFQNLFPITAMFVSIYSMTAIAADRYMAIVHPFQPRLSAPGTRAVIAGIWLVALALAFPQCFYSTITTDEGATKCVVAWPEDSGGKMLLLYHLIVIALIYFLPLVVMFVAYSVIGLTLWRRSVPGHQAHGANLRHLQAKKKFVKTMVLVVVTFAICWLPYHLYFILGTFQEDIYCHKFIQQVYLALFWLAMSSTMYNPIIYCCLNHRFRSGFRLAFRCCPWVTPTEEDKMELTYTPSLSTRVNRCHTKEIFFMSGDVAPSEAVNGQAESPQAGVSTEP
Procedure: as §1, §2, §3

NK1 and NK2 receptors = experiment: Antagonism of capsaicin aerosol induced respiratory effects in conscious guinea pigs; type: in vivo, guinea pig; conditions: for SRE NUMBER (coughs/gasps): 19 min capsaicin exposure; for SRE NUMBER (coughs/gasps) / DYSPNEA ONSET / MAXIMUM PRESSURE INCREASE: mean and SEM; for DYSPNEA INCIDENCE / DYSPNEA ONSET / MAXIMUM PRESSURE INCREASE: capsaicin aerosol 0.001%; for antagonism of effects of capsaicin aerosol (in words): administered orally; for inhibition of endogenous tachykinins released by capsaicin aerosol (in words): guinea pig, in vivo
Procedure: (§4) ANTAGONISM OF NKA AND CAPSAICIN INDUCED R[…] IN CONSCIOUS GUINEA PIGS
(§5) In vivo experiments were performed using male Duncan Hartley guinea pigs (250-350 g). Changes in conscious breathing patterns were monitored in four animals simultaneously using modified whole body plethysmography consisting of four small plexiglass boxes each connected to a reference box via Validyne DP 45-16 differential pressure transducers. The 4 boxes were equipped with an air supply line (also used for aerosol delivery) and an exhaust air line. Supply and exhaust lines were of the same length and narrow bore and arose from a common supply chamber and vented to a common exhaust chamber. This system was used to ensure that fluctuations in supply air and atmospheric pressure would remain in phase and be eliminated from the net signal by the differential pressure transducers. The analog pressure signals were digitalized via a Data Translation DT2821 A to D board. Data were collected at a rate of 100 samples/second/animal. Each cycle of pressure change was analyzed using the following parameters: rising and falling slope determined between minimum and maximum pressures, the ratio of rising over falling slope, and the magnitude of the change between initial trough pressure and peak cycle pressure. Using these values (and observing the animals) the pressure cycles were characterized into normal breaths, forced exhalations (apparent by abdominal heaving), significant respiratory events (SREs; usually coughs, less often sneezes or gasps which were characterized by transient, extremely large pressure increases which were distinguishable from noise) and movement/noise with a PCAT 286 running a System V UNIX operating system. Dyspnea was defined as a significant, sustained increase in plethysmograph pressure which was associated with an observable shift to labored breathing in the animal.
(§6) During the course of a typical experiment in which airway responsiveness to various bronchoconstricting agents was examined, aerosols were delivered for 19 min (0.33 ml/min) using a DeVilbiss Ultraneb 99 ultrasonic nebulizer and animals monitored during this time. Prior to nebulization, 1 min of resting breathing was collected to establish a baseline pressure. […] The vehicle for nebulization of all bronchoconstrictive agents was phosphate buffered saline (pH 7.4) which elicited no r[…] itself. Putative tachykinin antagonists were administered either (i.v.) 20 min prior to onset of aerosol exposure or orally 1 hour prior to onset (to guinea pigs after an overnight fast).
Capsaicin aerosol is known to promote release of the tachykinins SP and NKA from sensory nerves in the airways of guinea pigs which may then act upon NK1 and NK2 receptors, respectively to elicit r[…]. The ability of the compounds of Example 3A; and Example 20A to attenuate capsaicin-induced r[…], shown in Table 7a, is inferred from their ability to reduce incidence of dyspnea, prolong the onset of the response and reduce the number of coughs/gasps which occur during aerosol exposure.

NK2 receptor [2] = experiment: Antagonism of NKA aerosol induced respiratory effects in conscious guinea pigs; type: in vivo, guinea pig; conditions: 20 min prior to NKA aerosol (0.05%); for DYSPNEA ONSET: mean and SEM
Procedure: as §4, §5, §6
Table 6 illustrates the effects of the compounds of Example 3; Example 20A; and Example 5A on r[…] induced by NKA aerosol. […] These effects were dose dependent i.e. the higher the dose of compound, the greater attenuation of NKA-mediated effects.

[3] = 25 mg/kg oral gavage 1 hr prior
[4] = 50 mg/kg oral gavage 1 hr prior
[5] = 100 mg/kg oral gavage 1 hr prior

T1 sequence (P25103 whole entry): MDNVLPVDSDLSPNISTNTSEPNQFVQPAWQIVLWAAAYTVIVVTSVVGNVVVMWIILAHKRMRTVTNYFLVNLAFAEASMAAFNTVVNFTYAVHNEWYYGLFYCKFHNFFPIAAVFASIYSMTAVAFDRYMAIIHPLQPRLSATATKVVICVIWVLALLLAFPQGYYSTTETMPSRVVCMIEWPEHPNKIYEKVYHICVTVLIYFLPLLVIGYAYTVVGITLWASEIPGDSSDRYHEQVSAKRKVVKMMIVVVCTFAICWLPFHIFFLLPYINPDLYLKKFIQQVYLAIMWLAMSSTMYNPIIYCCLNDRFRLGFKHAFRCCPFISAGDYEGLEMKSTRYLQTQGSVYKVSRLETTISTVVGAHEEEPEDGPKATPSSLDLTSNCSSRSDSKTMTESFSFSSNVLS

COc1cc(C(=O)N2CCC(CCN3CCC(C(N)=O)(c4ccccc4)CC3)(c3ccc(Cl)c(Cl)c3)C2)cc(OC)c1OC (racemic) [Example 3A, 1-[2-[3-(3,4-dichloro-phenyl)-1-(3,4,5-trimethoxy-benzoy1)-pyrrolidin-3-yl]-ethyl]-4-phenyl-piperidine-4-carboxylic acid amide hydrochloride]
NK-1 RECEPTOR -SLOPE (NK1 receptor): 0.90 | NK-1 RECEPTOR pA2 (NK1 receptor): 7.91 | NK-2 RECEPTOR -SLOPE (NK2 receptor [1]): 0.73 | NK-2 RECEPTOR pA2 (NK2 receptor [1]): 8.75 | SRE NUMBER (coughs/gasps) (NK1 and NK2 receptors; 10 mg/kg intravenous): 8.50 ± 1.9 | DYSPNEA INCIDENCE (NK1 and NK2 receptors; 10 mg/kg intravenous): 89% | DYSPNEA ONSET (NK1 and NK2 receptors; 10 mg/kg intravenous): 480 ± 80 s | MAXIMUM PRESSURE INCREASE (NK1 and NK2 receptors; 10 mg/kg intravenous): 0.83 ± 0.18 mmH2 O | SRE NUMBER (coughs/gasps) (NK1 and NK2 receptors; [3]): 4.6 ± 1.0 | DYSPNEA INCIDENCE (NK1 and NK2 receptors; [3]): 80% | DYSPNEA ONSET (NK1 and NK2 receptors; [3]): 424 ± 120 s | MAXIMUM PRESSURE INCREASE (NK1 and NK2 receptors; [3]): 0.7 ± 0.2 mmH2 O | SRE NUMBER (coughs/gasps) (NK1 and NK2 receptors; [4]): 2.8 ± 0.8 | DYSPNEA INCIDENCE (NK1 and NK2 receptors; [4]): 70% | DYSPNEA ONSET (NK1 and NK2 receptors; [4]): 434 ± 152 s | MAXIMUM PRESSURE INCREASE (NK1 and NK2 receptors; [4]): 0.4 ± 0.1 mmH2 O | SRE NUMBER (coughs/gasps) (NK1 and NK2 receptors; [5]): 2.1 ± 0.5 | DYSPNEA INCIDENCE (NK1 and NK2 receptors; [5]): 50% | DYSPNEA ONSET (NK1 and NK2 receptors; [5]): 360 ± 120 s | MAXIMUM PRESSURE INCREASE (NK1 and NK2 receptors; [5]): 0.4 ± 0.1 mmH2 O | antagonism of effects of capsaicin aerosol (in words) (NK1 and NK2 receptors): antagonize the effects of capsaicin aerosol when administered orally | inhibition of endogenous tachykinins released by capsaicin aerosol (in words) (NK1 and NK2 receptors): inhibit the endogenous tachykinins released by capsaicin aerosol

COc1cc(C(=O)N2CCC(CCN3CCC(C(N)=O)(c4ccccc4)CC3)(c3ccc(Cl)c(Cl)c3)C2)cc(OC)c1OC (single isomer, unassigned; (+)) [Example 20, (+)-1-[2-[3-(3,4-dichloro-phenyl)-1-(3,4,5-trimethoxy-benzoyl)-pyrrolidin-3-yl]-ethyl]-4-phenyl-piperidine-4-carboxylic acid amide]
NK-1 RECEPTOR -SLOPE (NK1 receptor): 1.03 | NK-2 RECEPTOR -SLOPE (NK2 receptor [1]): 1.00

COc1cccc(OC)c1C(=O)N1CCC(CCN2CCC(C(N)=O)(c3ccccc3)CC2)(c2ccc(Cl)c(Cl)c2)C1 (stereo not drawn) [Example 5A, 1-[2-[3-(3,4-dichloro-phenyl)-1-(2,6-dimethoxy-benzoyl)-pyrrolidin-3-yl]-ethyl]-4-phenyl-piperidine-4-carboxylic acid amide hydrochloride]
NK-1 RECEPTOR -SLOPE (NK1 receptor): 1.17 | NK-1 RECEPTOR pA2 (NK1 receptor): 7.32 | NK-2 RECEPTOR -SLOPE (NK2 receptor [1]): 1.11 | NK-2 RECEPTOR pA2 (NK2 receptor [1]): 7.35 | DYSPNEA INCIDENCE (NK2 receptor [2]; 5 mg/kg): 60% | DYSPNEA ONSET (NK2 receptor [2]; 5 mg/kg): 654 ± 37 s | DYSPNEA INCIDENCE (NK2 receptor [2]; 10 mg/kg): 54% | DYSPNEA ONSET (NK2 receptor [2]; 10 mg/kg): 608 ± 65 s

COc1cccc(OC)c1C(=O)N1CCC(CCN2CCC(C(N)=O)(c3ccccc3)CC2)(c2ccc(Cl)c(Cl)c2)C1 (stereo not drawn) [Example 5]
SRE NUMBER (coughs/gasps) (NK1 and NK2 receptors; [3]): 4.4 ± 1.2 | DYSPNEA INCIDENCE (NK1 and NK2 receptors; [3]): 66.7% | DYSPNEA ONSET (NK1 and NK2 receptors; [3]): 253 ± 47 s | MAXIMUM PRESSURE INCREASE (NK1 and NK2 receptors; [3]): 0.7 ± 0.1 mmH2 O | SRE NUMBER (coughs/gasps) (NK1 and NK2 receptors; [4]): 4.9 ± 1.9 | DYSPNEA INCIDENCE (NK1 and NK2 receptors; [4]): 85.7% | DYSPNEA ONSET (NK1 and NK2 receptors; [4]): 384 ± 85 s | MAXIMUM PRESSURE INCREASE (NK1 and NK2 receptors; [4]): 0.5 ± 0.1 mmH2 O | antagonism of effects of capsaicin aerosol (in words) (NK1 and NK2 receptors): antagonize the effects of capsaicin aerosol when administered orally | inhibition of endogenous tachykinins released by capsaicin aerosol (in words) (NK1 and NK2 receptors): inhibit the endogenous tachykinins released by capsaicin aerosol
